The target in one experiment is T1, IKZF1 (Homo sapiens, UniProt Q13422+Q96SW2).
T1 construct: endogenous in cells; host or cells: hPBMCs (Milecell Biotechnologies)
The experiment in a line: Western-blot assay of substrate protein degradation in hPBMCs, IKZF1. In kind it is cell-based. Conditions: 24 hours of compound treatment.

The target in the next experiment is T2, WEE1 (Homo sapiens, UniProt P30291+Q96SW2).
T2 construct: endogenous in cells; host or cells: hPBMCs (Milecell Biotechnologies)
The experiment in a line: Western-blot assay of substrate protein degradation in hPBMCs, WEE1. In kind it is cell-based. Conditions: 24 hours of compound treatment.

A further experiment concerns the target T3, CK1α (Homo sapiens, UniProt P48729+Q96SW2).
T3 construct: endogenous in cells; host or cells: hPBMCs (Milecell Biotechnologies)
The experiment in a line: Western-blot assay of substrate protein degradation in hPBMCs, CK1α. Conditions: 24 hours of compound treatment. The format is cell-based.

Experiment [1] addresses T4, human Cereblon WT GST-tagged protein (Homo sapiens, UniProt Q96SW2).
T4 construct: purchased CISBIO 64BDCRBNPEH
The experiment in a line: CRBN-binding affinity by HTRF (CEREBLON BINDING kit). The following applies: HTRF inhibitory activity, CEREBLON BINDING kit; read-out: HTRF IC50.

Another experiment concerns the target T5, IKZF3 (Homo sapiens, UniProt Q96SW2+Q9UKT9).
T5 construct: endogenous in cells; host or cells: hPBMCs (Milecell Biotechnologies)
The experiment in a line: Western-blot assay of substrate protein degradation in hPBMCs, IKZF3. The following applies: 24 hours of compound treatment. The format is cell-based.

In another experiment the target is T6, IKZF2 (Homo sapiens, UniProt Q96SW2+Q9UKS7).
T6 construct: endogenous in cells; host or cells: hPBMCs (Milecell Biotechnologies)
The experiment in a line: Western-blot assay of substrate protein degradation in hPBMCs, IKZF2. The format is cell-based. The following applies: 24 hours of compound treatment.

For the next experiment, the system named is MM.1S. The experiment in a line: Tumor cell proliferation inhibition (CellTiter-Meiluncell Luminescent Cell Viability Assay), MM.1S. Conditions: Homo sapiens, MM1.S, read-out: inhibitory activity (IC50, nM) against tumor cells proliferation, MM.1S.
The target of another experiment is T7, GSPT1 (Homo sapiens, UniProt P15170+Q96SW2).
T7 construct: endogenous in cells; host or cells: hPBMCs (Milecell Biotechnologies)
The experiment in a line: Western-blot assay of substrate protein degradation in hPBMCs, GSPT1. In kind it is cell-based. Conditions: 24 hours of compound treatment.

In the next experiment the test system is Jurkat. The experiment in a line: Tumor cell proliferation inhibition (CellTiter-Meiluncell Luminescent Cell Viability Assay), Jurkat. The following applies: Homo sapiens, read-out: inhibitory activity (IC50, nM) against tumor cells proliferation, Jurkat.
The test system of experiment [2] is Human acute T lymphocytic leukemia cells (Molt-4). The experiment in a line: Tumor cell proliferation inhibition (CellTiter-Meiluncell Luminescent Cell Viability Assay), Molt-4. Conditions: MOLT-4, read-out: inhibitory activity (IC50, nM) against tumor cells proliferation, Molt-4.
The next experiment has as its system CCRF-CEM. The experiment in a line: Tumor cell proliferation inhibition (CellTiter-Meiluncell Luminescent Cell Viability Assay), CCRF-CEM. Conditions: Homo sapiens, read-out: inhibitory activity (IC50, nM) against tumor cells proliferation, CCRF-CEM.
The next experiment concerns MV-4-11. The experiment in a line: Tumor cell proliferation inhibition (CellTiter-Meiluncell Luminescent Cell Viability Assay), MV-4-11. The following applies: Homo sapiens, MV4-11, read-out: inhibitory activity (IC50, nM) against tumor cells proliferation, MV-4-11.
Where [3] appears, read: compounds tested at 50 nM and 500 nM (concentration of the table not stated).
The mark [4] stands for this setting: 50 nM and 500 nM tested (concentration behind the class not stated).

T5 sequence (Q9UKT9 whole entry): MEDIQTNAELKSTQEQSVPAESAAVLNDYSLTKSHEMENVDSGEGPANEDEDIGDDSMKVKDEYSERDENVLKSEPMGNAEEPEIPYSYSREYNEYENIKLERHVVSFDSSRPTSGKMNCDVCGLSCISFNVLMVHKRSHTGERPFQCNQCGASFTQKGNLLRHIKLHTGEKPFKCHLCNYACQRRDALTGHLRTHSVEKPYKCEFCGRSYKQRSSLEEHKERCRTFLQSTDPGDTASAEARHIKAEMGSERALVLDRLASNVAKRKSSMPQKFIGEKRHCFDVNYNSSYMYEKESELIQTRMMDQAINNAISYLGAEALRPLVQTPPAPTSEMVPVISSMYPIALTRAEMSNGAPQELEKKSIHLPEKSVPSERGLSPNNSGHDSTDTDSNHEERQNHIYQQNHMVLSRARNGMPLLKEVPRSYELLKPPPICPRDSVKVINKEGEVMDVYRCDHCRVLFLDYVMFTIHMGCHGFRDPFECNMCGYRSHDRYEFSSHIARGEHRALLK
T5 sequence (Q96SW2 whole entry): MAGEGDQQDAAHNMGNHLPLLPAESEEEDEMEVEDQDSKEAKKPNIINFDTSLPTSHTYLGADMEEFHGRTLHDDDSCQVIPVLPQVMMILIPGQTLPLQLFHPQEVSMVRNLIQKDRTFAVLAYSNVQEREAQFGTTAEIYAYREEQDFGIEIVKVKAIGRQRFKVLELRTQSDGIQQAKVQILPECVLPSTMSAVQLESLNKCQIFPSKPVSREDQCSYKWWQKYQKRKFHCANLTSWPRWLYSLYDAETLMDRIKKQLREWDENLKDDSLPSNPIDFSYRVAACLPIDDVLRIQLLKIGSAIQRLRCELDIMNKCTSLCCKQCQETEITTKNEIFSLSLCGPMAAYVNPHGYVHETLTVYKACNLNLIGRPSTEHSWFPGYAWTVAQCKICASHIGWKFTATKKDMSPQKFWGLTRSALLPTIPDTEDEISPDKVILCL
T5 sequence (Q16531 whole entry partner): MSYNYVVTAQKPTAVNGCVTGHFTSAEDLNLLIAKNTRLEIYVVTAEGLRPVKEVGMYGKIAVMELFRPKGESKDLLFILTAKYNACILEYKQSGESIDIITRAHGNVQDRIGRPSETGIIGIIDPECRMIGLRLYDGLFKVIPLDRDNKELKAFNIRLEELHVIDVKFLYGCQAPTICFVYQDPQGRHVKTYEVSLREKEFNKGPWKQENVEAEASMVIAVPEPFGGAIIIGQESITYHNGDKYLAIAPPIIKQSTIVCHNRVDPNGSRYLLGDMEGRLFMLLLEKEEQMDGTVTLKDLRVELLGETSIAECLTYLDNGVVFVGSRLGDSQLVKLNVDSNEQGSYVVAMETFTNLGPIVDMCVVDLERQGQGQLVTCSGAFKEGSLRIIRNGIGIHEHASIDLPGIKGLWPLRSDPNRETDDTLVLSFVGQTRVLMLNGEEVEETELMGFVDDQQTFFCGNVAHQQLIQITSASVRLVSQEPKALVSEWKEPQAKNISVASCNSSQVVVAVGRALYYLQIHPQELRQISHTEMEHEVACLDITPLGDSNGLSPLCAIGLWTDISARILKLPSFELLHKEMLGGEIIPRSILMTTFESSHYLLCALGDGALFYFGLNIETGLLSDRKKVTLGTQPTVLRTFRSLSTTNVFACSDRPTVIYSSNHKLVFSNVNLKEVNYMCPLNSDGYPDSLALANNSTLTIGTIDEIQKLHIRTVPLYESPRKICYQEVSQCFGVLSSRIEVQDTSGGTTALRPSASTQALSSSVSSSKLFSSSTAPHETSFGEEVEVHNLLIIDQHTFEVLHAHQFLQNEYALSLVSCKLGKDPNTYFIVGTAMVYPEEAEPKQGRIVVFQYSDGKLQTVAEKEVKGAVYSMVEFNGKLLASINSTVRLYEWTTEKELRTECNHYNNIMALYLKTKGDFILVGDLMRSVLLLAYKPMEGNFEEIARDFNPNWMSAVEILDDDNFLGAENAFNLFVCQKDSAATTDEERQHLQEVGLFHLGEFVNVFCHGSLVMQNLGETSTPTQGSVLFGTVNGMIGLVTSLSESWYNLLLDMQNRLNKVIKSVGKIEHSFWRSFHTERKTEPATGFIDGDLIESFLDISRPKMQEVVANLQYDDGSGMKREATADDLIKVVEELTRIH
T6 sequence (Q9UKS7 whole entry): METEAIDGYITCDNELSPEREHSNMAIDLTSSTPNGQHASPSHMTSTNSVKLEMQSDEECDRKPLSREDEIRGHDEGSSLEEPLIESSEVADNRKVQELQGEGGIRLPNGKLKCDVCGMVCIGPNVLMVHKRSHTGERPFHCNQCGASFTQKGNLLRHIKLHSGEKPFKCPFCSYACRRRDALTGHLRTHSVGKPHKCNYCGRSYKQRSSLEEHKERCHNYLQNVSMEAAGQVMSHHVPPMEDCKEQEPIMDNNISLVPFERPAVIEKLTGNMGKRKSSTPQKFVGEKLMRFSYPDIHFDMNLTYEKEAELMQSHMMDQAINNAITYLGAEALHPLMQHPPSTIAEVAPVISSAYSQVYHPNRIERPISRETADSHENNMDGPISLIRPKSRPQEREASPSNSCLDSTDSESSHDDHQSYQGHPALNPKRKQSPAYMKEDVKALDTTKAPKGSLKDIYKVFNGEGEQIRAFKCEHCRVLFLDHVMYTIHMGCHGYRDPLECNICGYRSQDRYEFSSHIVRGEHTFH
T6 sequence (Q96SW2 whole entry): as the sequence (Q96SW2 whole entry) above
T6 sequence (Q16531 whole entry partner): as the sequence (Q16531 whole entry partner) above
T3 sequence (P48729 whole entry): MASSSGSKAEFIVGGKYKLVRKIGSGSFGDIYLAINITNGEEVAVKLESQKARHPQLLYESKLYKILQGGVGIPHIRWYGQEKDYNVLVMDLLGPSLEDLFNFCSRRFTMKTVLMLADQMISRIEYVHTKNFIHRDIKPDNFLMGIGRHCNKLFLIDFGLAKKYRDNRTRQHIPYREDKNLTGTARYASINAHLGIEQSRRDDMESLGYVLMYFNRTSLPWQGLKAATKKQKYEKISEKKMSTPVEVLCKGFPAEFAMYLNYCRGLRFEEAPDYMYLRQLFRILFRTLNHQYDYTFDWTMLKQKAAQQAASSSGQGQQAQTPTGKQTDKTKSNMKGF
T3 sequence (Q96SW2 whole entry): as the sequence (Q96SW2 whole entry) above
T3 sequence (Q16531 whole entry partner): as the sequence (Q16531 whole entry partner) above
T7 sequence (P15170 whole entry): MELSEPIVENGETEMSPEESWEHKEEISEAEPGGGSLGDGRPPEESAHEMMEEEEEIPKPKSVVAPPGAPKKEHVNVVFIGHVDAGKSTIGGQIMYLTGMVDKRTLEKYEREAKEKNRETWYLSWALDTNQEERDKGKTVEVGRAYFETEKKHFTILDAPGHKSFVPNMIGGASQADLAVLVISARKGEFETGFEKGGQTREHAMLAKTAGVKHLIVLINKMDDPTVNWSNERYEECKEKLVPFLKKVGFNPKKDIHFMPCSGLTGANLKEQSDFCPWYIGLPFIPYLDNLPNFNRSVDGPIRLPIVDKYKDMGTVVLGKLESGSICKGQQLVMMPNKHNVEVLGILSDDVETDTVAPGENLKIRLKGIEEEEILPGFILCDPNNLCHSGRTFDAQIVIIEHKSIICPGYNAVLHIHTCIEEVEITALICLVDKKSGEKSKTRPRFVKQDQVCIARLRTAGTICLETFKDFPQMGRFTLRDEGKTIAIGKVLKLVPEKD
T7 sequence (Q96SW2 whole entry): as the sequence (Q96SW2 whole entry) above
T7 sequence (Q16531 whole entry partner): as the sequence (Q16531 whole entry partner) above
T1 sequence (Q13422 whole entry): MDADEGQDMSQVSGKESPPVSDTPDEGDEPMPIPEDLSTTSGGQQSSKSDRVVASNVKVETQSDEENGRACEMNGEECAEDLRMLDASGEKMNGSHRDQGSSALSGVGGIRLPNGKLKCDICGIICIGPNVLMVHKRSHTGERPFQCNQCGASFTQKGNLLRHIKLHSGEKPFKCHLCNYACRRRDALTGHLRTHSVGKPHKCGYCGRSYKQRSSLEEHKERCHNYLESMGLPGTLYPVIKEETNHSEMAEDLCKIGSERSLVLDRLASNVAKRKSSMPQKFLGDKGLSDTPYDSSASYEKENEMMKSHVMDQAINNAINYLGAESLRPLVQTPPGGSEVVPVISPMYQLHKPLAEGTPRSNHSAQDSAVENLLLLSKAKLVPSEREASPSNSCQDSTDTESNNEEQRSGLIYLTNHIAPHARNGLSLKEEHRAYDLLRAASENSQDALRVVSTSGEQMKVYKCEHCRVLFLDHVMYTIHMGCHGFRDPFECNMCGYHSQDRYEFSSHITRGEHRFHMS
T1 sequence (Q96SW2 whole entry): as the sequence (Q96SW2 whole entry) above
T1 sequence (Q16531 whole entry partner): as the sequence (Q16531 whole entry partner) above
T4 sequence (Q96SW2 whole entry): as the sequence (Q96SW2 whole entry) above
Description for CCRF-CEM: The tumor cells used herein were cultured in a cell culture medium listed in table 2 at 37°C in an incubator with 5% CO2. Prior to experimentation, all cell lines used were correctly identified by STR profiling, and tested negative for mycoplasma contamination using a mycoplasma detection kit through routine screenings.
On the following day, the test compounds of the present disclosure were subjected to serial dilution. […] Subsequently, 0.5 µL of the test compound dilution was transferred into the 96-well plate containing the cells, with each well containing 100 µL of cell culture medium. […] Into the 96-well plate, the diluted test compounds and corresponding detection reagents were added, resulting in final test compound concentrations of 500 nM and 10 nM, respectively. The experimental procedure is described below using the diluted 2 µM test compound as an example.
After the cells were treated with the compounds of the present disclosure for a specified period (the treatment durations were shown in Table 3), the cell viability assay reagent was added to the culture medium according to the kit's instructions to determine cell viability. […] All controls were treated using the same procedure as the compounds of the present disclosure. The growth inhibition curves for the compounds of the present disclosure were plotted using Prism GraphPad software, and the IC50 values were calculated therefrom.

For the molecule `O=C1CCC(N2Cc3cc(CN4CCCN(c5cccc(Cl)c5Cl)CC4)ccc3C2=O)C(=O)N1` (stereo not shown) [GT-04856, 3-(5-((4-(2,3-dichlorophenyl)-1,4-diazepan-1-yl)methyl)-1-oxoisoindolin-2-yl)piperidine-2,6-dione], the “IKZF 1 substrate protein remaining %” value at IKZF1 (setting [3]) is listed as “A (0% ≤ substrate protein remaining % ≤ 80%)”. The “Weel substrate protein remaining %” value on WEE1 (setting [3]) is given as “A (0% ≤ substrate protein remaining % ≤ 80%)”. For the same molecule, on CK1α (setting [3]), the “CK1a substrate protein remaining %” value is “B (80%< substrate protein remaining %≤ 100%)”. Besides, the IC50 in [1] is 500 to 1000 nM; with MM.1S, 10 to 50 nM. Also, at IKZF3 (setting [3]), the “IKZF3 substrate protein remaining %” value is “A (0% ≤ substrate protein remaining % ≤ 80%)”. For the same molecule, the “IKZF2 substrate protein remaining %” value at IKZF2 (setting [3]) is recorded as “A (0% ≤ substrate protein remaining % ≤ 80%)”. Moreover, at GSPT1 (setting [3]), the “GSPT1 substrate protein remaining %” value is recorded as “A (0% ≤ substrate protein remaining % ≤ 80%)”.
Consider `O=C1CCC(N2Cc3cc(CN4CCC(N5CCOc6cc(F)ccc65)CC4)ccc3C2=O)C(=O)N1` (stereo not shown) [GT-04859, 3-(5-((4-(7-fluoro-2,3-dihydro-4H-benzo[b][1,4]oxazin-4-yl)piperidin-1-yl)methyl)-1-oxoisoindolin-2-yl)piperidine-2,6-dione], for which the “IKZF 1 substrate protein remaining %” value at IKZF1 (setting [3]) is reported as “A (0% ≤ substrate protein remaining % ≤ 80%)”. Also, the “Weel substrate protein remaining %” value on WEE1 (setting [3]) was “B (80%< substrate protein remaining %≤ 100%)”. Further, the “CK1a substrate protein remaining %” value on CK1α (setting [3]) is reported as “B (80%< substrate protein remaining %≤ 100%)”. The IC50 in [1] was less than 500 nM; in the experiment on MM.1S it was 50 to 100 nM. Moreover, the “IKZF3 substrate protein remaining %” value at IKZF3 (setting [3]) is reported as “A (0% ≤ substrate protein remaining % ≤ 80%)”. The “IKZF2 substrate protein remaining %” value on IKZF2 (setting [3]) is on record as “A (0% ≤ substrate protein remaining % ≤ 80%)”. The “GSPT1 substrate protein remaining %” value at GSPT1 (setting [3]) is on record as “A (0% ≤ substrate protein remaining % ≤ 80%)”.
For `O=C1CCC(N2C(=O)c3ccc(CN4CC=C(c5cncc(Cl)c5Cl)CC4)cc3C2=O)C(=O)N1` (stereo not shown) [GT-06609, 5-((4,5-dichloro-3',6'-dihydro-[3,4'-bipyridin]-1'(2'H)-yl)methyl)-2-(2,6-dioxopiperidin-3-yl)isoindoline-1,3-dione], the “IKZF 1 substrate protein remaining %” value at IKZF1 (setting [4]) is on record as “A (0% ≤ substrate protein remaining % ≤ 80%)”. Further, the “Weel substrate protein remaining %” value at WEE1 (setting [4]) is on record as “A (0% ≤ substrate protein remaining % ≤ 80%)”. The “CK1a substrate protein remaining %” value on CK1α (setting [4]) was “B (80%< substrate protein remaining %≤ 100%)”. Further, the IC50 in experiment [1] lay in the range of 500 to 1000 nM; with Jurkat, 100 to 500 nM; in experiment [2] it was 100 to 500 nM; with CCRF-CEM it was 100 to 500 nM; in the experiment with MV-4-11, 100 to 500 nM. At IKZF3 (setting [4]), the “IKZF3 substrate protein remaining %” value was “A (0% ≤ substrate protein remaining % ≤ 80%)”. Moreover, the “IKZF2 substrate protein remaining %” value on IKZF2 (setting [4]) is “A (0% ≤ substrate protein remaining % ≤ 80%)”. Also, the “GSPT1 substrate protein remaining %” value at GSPT1 (setting [4]) was “A (0% ≤ substrate protein remaining % ≤ 80%)”.
For `O=C1CCC(N2C(=O)c3ccc(CN4CC=C(c5ccnc(Cl)c5Cl)CC4)cc3C2=O)C(=O)N1` (stereo not shown) [GT-06616, 5-((2',3'-dichloro-3,6-dihydro-[4,4'-bipyridin]-1(2H)-yl)methyl)-2-(2,6-dioxopiperidin-3-yl)isoindoline-1,3-dione], the “IKZF 1 substrate protein remaining %” value on IKZF1 (setting [4]) is recorded as “A (0% ≤ substrate protein remaining % ≤ 80%)”. The “Weel substrate protein remaining %” value on WEE1 (setting [4]) was “A (0% ≤ substrate protein remaining % ≤ 80%)”. For the same molecule, on CK1α (setting [4]), the “CK1a substrate protein remaining %” value is “A (0% ≤ substrate protein remaining % ≤ 80%)”. Besides, the IC50 in experiment [1] fell in the range of 1500 to 1900 nM; in experiment [2] it was 500 to 1000 nM; in the experiment with CCRF-CEM, 500 to 1000 nM; in the experiment on MV-4-11 it was 100 to 500 nM. Further, the “IKZF3 substrate protein remaining %” value at IKZF3 (setting [4]) is “A (0% ≤ substrate protein remaining % ≤ 80%)”. On IKZF2 (setting [4]), the “IKZF2 substrate protein remaining %” value was “B (80%< substrate protein remaining %≤ 100%)”. Further, the “GSPT1 substrate protein remaining %” value at GSPT1 (setting [4]) is “A (0% ≤ substrate protein remaining % ≤ 80%)”.
